Consider 14 compounds from US6509002B1, “Diagnostic agent for diabetes” (priority 1997, dated 2003).

A short description of series [1]: ^13C breath test, oral administration, diabetic vs normal rats. The class given is in vivo, rat. As to conditions: for slope from 12 to 17 min after the administration: 90 mg/kg orally, Example 38. As to the method:
As test animals, male Sprague-Dawley strain (SD) neonatal rats were purchased from Nippon Charles River K. K. together with their lactating rats. They were bred at 23±2° C. under 55±10% humidity before use. Insulin secretion-deficient type diabetes was generated by administering streptozotocin (STZ) to neonatal rats (“Saibokogaku (Cell Engineering)”, Extra Issue, medical Experiment Manual Series, Strategy for Study of Diabetes, edited by Susumu Seino and Yoshikazu Oka, published by Shujunsha Co., Japan). STZ was subcutaneously administered to 2-day-old rats at a dose of 90 mg/kg. The STZ had been dissolved in a citrate buffer (pH 4.5) and was administered within 5 min after the dissolution. Two days after the administration, blood was collected by cardiac puncture, and the casual blood sugar level of each rat was measured with Terumo […] (blood sugar measurement set). […] However, their fasting blood sugar levels increase only slightly and remain at almost normal levels. According to the standards stipulated by the Japan Diabetes Society (1982), those individuals with a fasting blood sugar level (in venous whole blood) of […] or more are regarded as having diabetes (“[…] (Diabetes Test Manual)”, edited by Yukio […], published by Nanko-Do Co., Japan). Then, those rats with a fasting blood sugar level of less than 120 mg/dl (and with a casual blood sugar level of 250 mg/dl or more) which are not regarded as having diabetes in a fasting blood sugar level test were selected from the above-described rats with insulin secretion-deficient type diabetes and used as a model of light diabetes. Breath tests were carried out according to the method as described in (2)-1 or (2)-2 below on diabetic rats prepared in (1) above (8-10-week-old) and normal rats (8-10-week-old). Δ^13C (‰)=[(^13C t min-^13C 0 min)/^13C std]×1000 […] A blood sample was collected from the tail vein, and its sugar level was determined using Terumo […] (blood sugar measurement set). The exhalation was sucked with a stroke pump 18 (variable stroke pump VS-500; Shibata Scientific Technology) at a rate of 100-300 ml/min and introduced directly into a flow cell in ^13CO2 Analyzer EX-130S (Japan Spectroscopic Co., Ltd.) 20. […] Pure Drier ([…] Pure Inc.) was located between the rat holder and the stroke pump 18 to remove moisture in the exhalation (FIG. 1). […] The data output from the ^13CO2 analyzer 20 were incorporated into a personal computer 21 (Apple Power Macintosh 8500) after AD conversion. Using the data processing software Lab VIEW (National Instruments), data on ten points at every 100 msec were added up and averaged at intervals of 5 sec and then converted into ^13C atom %, Δ^13C (‰) and CO2 gas concentration (%), to thereby perform a continuous measurement ^13C breath test. […] Δ^13C (‰) was calculated by the formula described above.

Series [2] in a line: ^13C breath test, intravenous administration (femoral vein), diabetic vs normal rats. The series is classed as in vivo, rat. The source says:
As test animals, male Sprague-Dawley strain (SD) neonatal rats were purchased from Nippon Charles River K. K. together with their lactating rats. […] Insulin secretion-deficient type diabetes was generated by administering streptozotocin (STZ) to neonatal rats (“Saibokogaku (Cell Engineering)”, Extra Issue, medical Experiment Manual Series, Strategy for Study of Diabetes, edited by Susumu Seino and Yoshikazu Oka, published by Shujunsha Co., Japan). STZ was subcutaneously administered to 2-day-old rats at a dose of 90 mg/kg. […] Two days after the administration, blood was collected by cardiac puncture, and the casual blood sugar level of each rat was measured with Terumo […] (blood sugar measurement set). […] Breath tests were carried out according to the method as described in (2)-1 or (2)-2 below on diabetic rats prepared in (1) above (8-10-week-old) and normal rats (8-10-week-old). […] A blood sample was collected from the tail vein, and its sugar level was determined using Terumo […] (blood sugar measurement set). […] Fine Science Tools Inc.).

The mark [3] stands for this setting: diabetic rats, 50 mg/kg orally, Example 33.
[4] abbreviates: normal rats, 50 mg/kg orally, Example 33.
[5] abbreviates: diabetic rats, 60 mg/kg orally, Example 17.
Where [6] appears, read: normal rats, 60 mg/kg orally, Example 17.
The mark [7] stands for this setting: diabetic rats, 30 mg/kg orally, Example 7.
[8] abbreviates: normal rats, 30 mg/kg orally, Example 7.
The mark [9] stands for this setting: diabetic rats, 50 mg/kg from the femoral vein, Example 16.
The mark [10] stands for this setting: normal rats, 50 mg/kg from the femoral vein, Example 16.
Where [11] appears, read: diabetic rats, 20 mg/kg from the femoral vein, Example 21.
The mark [12] stands for this setting: normal rats, 20 mg/kg from the femoral vein, Example 21.
[13] abbreviates: diabetic rats, 50 mg/kg, printed as administered orally from the femoral vein, Example 19.
Where [14] appears, read: normal rats, 50 mg/kg, printed as administered orally from the femoral vein, Example 19.
Where [15] appears, read: diabetic rats, 45 mg/kg orally, Example 26.
Where [16] appears, read: normal rats, 45 mg/kg orally, Example 26.
Where [17] appears, read: diabetic rats, 40 mg/kg from the femoral vein, Example 36.
Setting [18] is: normal rats, 40 mg/kg from the femoral vein, Example 36.
Setting [19] is: diabetic rats, 20 mg/kg from the femoral vein, Example 8.
Setting [20] is: normal rats, 20 mg/kg from the femoral vein, Example 8.
The mark [21] stands for this setting: diabetic rats, 20 mg/kg from the femoral vein, Example 23.
Where [22] appears, read: normal rats, 20 mg/kg from the femoral vein, Example 23.
The mark [23] stands for this setting: diabetic rats, 50 mg/kg from the femoral vein, Example 27.
[24] abbreviates: normal rats, 50 mg/kg from the femoral vein, Example 27.
Where [25] appears, read: diabetic rats, 50 mg/kg from the femoral vein, Example 31.
The mark [26] stands for this setting: normal rats, 50 mg/kg from the femoral vein, Example 31.

`CCCCCCC[13C](=O)OCC(CO[13C](=O)CCCCCCC)O[13C](=O)CCCCCCC` [1,1,1-^13C-trioctanoin]: the “time course of Δ^13C values (‰)” value in series [1] (setting [3]) and in series [1] (setting [4]) was “continued increasing up to 30 min” throughout. For the same compound, the “Δ^13C value (‰) at 20 min after the administration” value (“Δ^13C value (‰) at 20 min” below) is listed as 150.72±22.48 ‰ in series [1] (setting [3]) and 110.16±16.08 ‰ in series [1] (setting [4]).
In the case of `N[C@@H](C[13c]1ccc(O)cc1)C(=O)O` [1-^13C-tyrosine], in series [1] (setting [5]), the “slope from 5 to 10 min after the administration” value (shortened to “slope from 5 to 10 min”) is 79.62±19.90 ‰/5 min; the “time course of Δ^13C values (‰)” value was “increased up to about 20 min after the administration, but thereafter decreased gradually up to 30 min”; the “Δ^13C value (‰) at 20 min” value is listed as 205.30±51.43 ‰. Also, in series [1] (setting [6]), the “slope from 5 to 10 min” value is 27.52±17.10 ‰/5 min, the “time course of Δ^13C values (‰)” value is reported as “continued increasing up to 30 min” and the “Δ^13C value (‰) at 20 min” value is 73.96±35.10 ‰.
Take U-^13C-starch: in series [1] (setting [7]), the “^13C value (‰) at 30 min after the administration” value is listed as 144.50±23.27 ‰ and the “time course of Δ^13C values (‰)” value is “continued increasing up to 20 min”. Moreover, in series [1] (setting [8]), the “^13C value (‰) at 30 min after the administration” value is recorded as 213.89±4.66 ‰ and the “time course of Δ^13C values (‰)” value is reported as “continued increasing up to 20 min”.
In the case of ethoxy-^13C-methacetin, the “slope from 12 to 17 min after the administration” value is −8.40±7.67 ‰/5 min in series [1] (diabetic rats) and 16.05±7.71 ‰/5 min in series [1] (normal rats).
Turning to `O=C[13C@H](O)[C@@H](O)[C@@H](O)[C@H](O)CO` [2-^13C-galactose], in series [2] (rat, in vivo, 100 mg/kg), the “time course of Δ^13C values (‰)” value is “continued increasing up to 20 min”.
Regarding `N[C@@H](CO)[13C](=O)O` [1-^13C-serine], in series [2] (setting [9]), the “slope from 1 to 4 min after the administration” value is 158.13±41.24 ‰/3 min; the “time course of Δ^13C values (‰)” value is “increased sharply up to about 8 min after the administration, but thereafter decreased gradually up to 20 min”; the “Δ^13C value (‰) at 10 min after the administration” value (“Δ^13C value (‰) at 10 min” below) is 228.08±43.45 ‰. In addition, in series [2] (setting [10]), the “slope from 1 to 4 min after the administration” value is given as 84.17±11.38 ‰/3 min; the “time course of Δ^13C values (‰)” value is “increased up to about 8 min after the administration of 1-^13C-serine, and thereafter remained at an almost constant level”; the “Δ^13C value (‰) at 10 min” value is recorded as 127.79±10.69 ‰.
`O=[13C](O)C1CCCN1` (centres unmarked) [1-^13C-proline]: in series [2] (setting [11]), the “time course of Δ^13C values (‰)” value is “increased up to about 9 min after the administration of 1-^13C-proline, but thereafter decreased gradually up to 20 min” and the “Δ^13C value (‰) at 20 min” value is 115.77±6.61 ‰. For the same compound, in series [2] (setting [12]), the “time course of Δ^13C values (‰)” value is “increased up to about 9 min after the administration of 1-^13C-proline, but thereafter decreased gradually up to 20 min” and the “Δ^13C value (‰) at 20 min” value was 92.27±11.10 ‰.
In the case of `Cl.NCCCC[C@H](N)[13C](=O)O` [1-^13C-lysine hydrochloride], in series [2] (setting [13]), the “slope from 15 to 20 min after the administration” value is −26.64±5.36 ‰/5 min; the “time course of Δ^13C values (‰)” value is on record as “increased up to about 10 min after the administration, but thereafter decreased gradually up to 20 min”; the “Δ^13C value (‰) at 8 min after the administration” value was 181.53±23.82 ‰. For the same compound, in series [2] (setting [14]), the “slope from 15 to 20 min after the administration” value is reported as −4.58±6.91 ‰/5 min; the “time course of Δ^13C values (‰)” value was “increased up to about 11 min after the administration of 1-^13C-lysine hydrochloride, and thereafter remained at an almost constant level up to 20 min”; the “Δ^13C value (‰) at 8 min after the administration” value is on record as 96.95±27.48 ‰.
For the compound `NC(CSSCC(N)[13C](=O)O)[13C](=O)O` (centres unmarked) [1-^13C-cystine], in series [1] (setting [15]), the “slope from 5 to 10 min” value is 46.82±2.94 ‰/5 min, the “time course of Δ^13C values (‰)” value is recorded as “continued increasing up to 30 min” and the “Δ^13C value (‰) at 10 min” value was 69.15±6.44 ‰. In series [1] (setting [16]), the “slope from 5 to 10 min” value is reported as 30.86±10.06 ‰/5 min, the “time course of Δ^13C values (‰)” value was “continued increasing up to 30 min” and the “Δ^13C value (‰) at 10 min” value is 45.26±8.68 ‰.
Regarding `Cc1c(N([13CH3])[13CH3])c(=O)n(-c2ccccc2)n1C` [N,N-dimethyl-^13C-aminopyrin], in series [2] (setting [17]), the “slope from 1 to 2 min after the administration” value (“slope from 1 to 2 min” for short) is recorded as 95.68±16.33 ‰/min; the “time course of Δ^13C values (‰)” value was “increased sharply up to about 5 min after the administration, and thereafter remained at an almost constant level up to 20 min”; the “Δ^13C value (‰) at 20 min” value is 193.62±22.21 ‰. In series [2] (setting [18]), the “slope from 1 to 2 min” value is 41.16±8.89 ‰/min; the “time course of Δ^13C values (‰)” value is “increased sharply up to about 3 min after the administration of N,N-dimethyl-^13C-aminopyrin, and thereafter increased gradually up to 20 min”; the “Δ^13C value (‰) at 20 min” value is 92.2±12.64 ‰.
In the case of `CC[C@H](C)[C@H](N)[13C](=O)O` [1-^13C-isoleucine], in series [2] (setting [19]), the “slope from 2 to 5 min after the administration” value is 56.21±2.09 ‰/3 min; the “time course of Δ^13C values (‰)” value is “increased sharply up to about 9 min after the administration, but thereafter remained at an almost constant level up to 20 min”; the “Δ^13C value (‰) at 5 min after the administration” value is 83.92±5.53 ‰. In series [2] (setting [20]), the “slope from 2 to 5 min after the administration” value was 33.21±2.44 ‰/3 min, the “time course of Δ^13C values (‰)” value is “continued increasing up to 20 min” and the “Δ^13C value (‰) at 5 min after the administration” value is reported as 46.98±3.24 ‰.
For the compound `N[C@@H](CS)[13C](=O)O` [1-^13C-cysteine], in series [2] (setting [21]), the “slope from 1 to 2 min” value was 38.50±2.33 ‰/min and the “Δ^13C value (‰) at 2 min after the administration” value was 42.87±2.09 ‰. In addition, in series [2] (setting [22]), the “slope from 1 to 2 min” value is given as 65.72±10.66 ‰/min and the “Δ^13C value (‰) at 2 min after the administration” value was 78.97±13.98 ‰.
In the case of `[13CH3]C(O)C(=O)[O-].[Na+]` (centres unmarked) [3-^13C-sodium lactate], in series [2] (setting [23]), the “^13C value (‰) at 10 min after the administration” value is 202.08±6.05 ‰; the “slope from 2 to 4 min after the administration” value was 96.83±17.69 ‰/2 min; the “time course of Δ^13C values (‰)” value is recorded as “increased sharply up to about 7 min after the administration, but thereafter decreased gradually up to 20 min”. Besides, in series [2] (setting [24]), the “^13C value (‰) at 10 min after the administration” value is given as 130.30±11.47 ‰; the “slope from 2 to 4 min after the administration” value was 60.69±6.80 ‰/2 min; the “time course of Δ^13C values (‰)” value is “increased sharply up to about 5 min after the administration of 3-^13C-sodium lactate, and thereafter increased gradually up to 20 min”.
Turning to `CCCCCCCCCCCCCCC[13C](=O)O` [1-^13C-palmitic acid], in series [2] (setting [25]), the “slope from 10 to 20 min after the administration” value is −4.40±2.21 ‰/10 min and the “time course of Δ^13C values (‰)” value was “increased sharply up to about 5 min after the administration, but thereafter decreased gradually up to 20 min”. Also, in series [2] (setting [26]), the “slope from 10 to 20 min after the administration” value is on record as 1.43±1.33 ‰/10 min and the “time course of Δ^13C values (‰)” value is “continued increasing up to 20 min”.
